Assays:
BALB/c mice [1] = assay: Retinal histology / immunolabelling of VGB-treated mice; assay type: in vivo; details: VGB 250 mg/kg i.p. daily for 30 days
Protocol: (§1) BALB/c mice (16 treated, 10 controls) were purchased from Janvier (Le Genest-St-lsle, France) at six weeks. VGB dissolved in 0.9%
(§2) NaCl at 100 mg/m1 was intraperitoneally injected daily for 30 days at a final concentration of 250 mg/kg as described for animal treatment of epilepsy (Andre V, Ferrandon A, Marescaux C, Nehlig A. Vigabatrin protects against hippocampal damage but is not antiepileptogenic in the lithium-pilocarpine model of temporal lobe epilepsy. Epilepsy Res. 2001;47:99-117). This dose was slightly higher than that prescribed to adult patient ([…]), children (100 mg/kg), or infants ([…]) (Bialer M, Johannessen S I, Kupferberg H J et al. Progress report on new antiepileptic drugs: a summary of the Fifth Eilat Conference (EILAT V). Epilepsy Res. 2001;43:11-58).
(§3) Eye cups were fixed overnight at 4° C. in 4% (wt/vol) paraformaldehyde in phosphate buffered saline (PBS) 0.01 M, pH 7.4. After cryoprotection in PBS containing successively 10%, 20% and 30% sucrose at 4° C., the tissue was embedded in OCT (Labonord, Villeneuve d'Ascq, France). Vertical sections (8-10 μm thickness) were permeabilized for 5 minutes in PBS containing 0.1% Triton X-100 (Sigma, St. Louis, Mo.), rinsed, and incubated in PBS containing 1% bovine serum albumin (Eurobio, Les-Ulis, France), 0.1% Tween 20 (Sigma), and 0.1% sodium azide (Merck, Fontenay-Sous-Bois, France) for 2 hours at room temperature. The primary antibody added to the solution was incubated for 2 hours at room temperature. The polycolonal antibodies were directed against the protein kinase C alpha (PKCα) (1:2000, Sigma), VGluT1 (1:2000, Chemicon), Goα (K-20; 1:100, Santa Cruz), calbindin D-28K (1:500, Chemicon), mouse cone arrestin/ Luminaire junior (LUMIj) (1:20,000, ^27). The monoclonal antibodies were directed against Goα (1:2000, Chemicon), bassoon (1:100, StressGen) and calbindin D-28K (1:500, Sigma). After rinses, sections were incubated with the secondary antibody, goat anti-rabbit IgG or rabbit anti-mouse IgG conjugated to either Alexa TM594 or Alexa TM488 (1:500, Molecular Probes, Eugene, Oreg.) for 2 hours. The dye, diamidiphenyl-indole (DAPI) was added to the last incubated solutions. Sections were rinsed, mounted with Fluorsave reagent (Calbiochem, San Diege, Calif.) and viewed with a Leica microscope (LEICA DM 5000B) equipped with a Ropper scientific camera (Photometrics cool SNAP TM FX).

rats = details: cited from earlier work
patients = patients under therapeutical treatment; cited from earlier work
BALB/c mice [2] = assay: Light dependence of the vigabatrin-elicited retinal toxicity (darkness vs 12h light/dark cycle); assay type: in vivo
Protocol: as §1, §2, §3
Albino rats only are sensitive to the VGB-elicited retinal toxicity (Butler W H, Ford G P, Newberne J W. A study of the effects of vigabatrin on the central nervous system and retina of Sprague Dawley and Lister-Hooded rats. Toxicol Pathol. 1987;15:143-148). […]

[3] = animals maintained in a dark room throughout the treatment

- Areas with a highly disorganized outer nuclear layer (ONL), animals affected (BALB/c mice [1]; albino mice): 5 of 16
- Cone photoreceptor terminals, cone arrestin and Goα immunolabelling (BALB/c mice [1]; mice): cone terminals remained in the OPL
- Cone photoreceptors, cone arrestin immunolabelling (BALB/c mice [1]; mice): cone outer segments had disappeared
- Photoreceptor synaptic vesicles, VGLUT1 immunolabelling (BALB/c mice [1]; mice): observed deep into the ONL
- GFAP staining of glial Muller cells (BALB/c mice [1]; mice, vs control albino mice): not increased
Compound: C=CC(N)CCC(=O)O (stereo not shown) [VGB, 4-amino-5-hexenoic acid]
- Contact of rod photoreceptor terminals with postsynaptic neurons, VGLUT1/Goα and bassoon/PKCα double immunolabelling (BALB/c mice [1]; mice): a few synaptic ribbons were not contacted by a rod bipolar cell dendrite
- Horizontal cell dendrites, calbindin immunolabelling (BALB/c mice [1]; mice): horizontal cells extended their dendrites deep into the ONL
- ON bipolar cell dendrites, Goα immunolabelling (BALB/c mice [1]; mice): extended their dendrites deep into the ONL
- Photoreceptor synaptic ribbon, bassoon immunolabelling (BALB/c mice [1]; mice): punctuate labelling was observed to penetrate deep into the ONL
- Rod and cone ON bipolar cell plasticity, PKCα and Goα double immunolabelling (BALB/c mice [1]; mice): both rod and cone ON bipolar cells underwent plasticity
- Major retinal changes (rats): retinal architecture disorganization, a major glial reaction, cone damages and photoreceptor apoptosis
- Undesirable effects on vision (patients): irreversible constriction of the visual field
- Bipolar cell dendritic growth in the ONL (BALB/c mice [2]; [3]): found not to grow dendrites in the ONL
- Photoreceptor terminal withdrawal in the ONL (BALB/c mice [2]; [3]): did not retract their terminals in the ONL
- Other retinal damages like ONL disorganization (BALB/c mice [2]; animals maintained in darkness): not observed
- Bipolar cell dendritic growth and photoreceptor terminal withdrawal (BALB/c mice [2]; animals under the 12h light/dark cycle): showed the bipolar cell dendritic growth and the photoreceptor terminal withdrawal

Reference: patent US20100062987A1, “ANTICONVULSIVE PHARMACEUTICAL COMPOSITIONS” (INSERM (Institut National de la Sante et de la Recherche …, priority 2006, published 2010)
